From US10774064B2 (Cadent Therapeutics, Inc., priority 2016, dated 2020)

Target: T1, small-conductance Ca2+-activated K+ channels (SK channels, subtype 2) (Homo sapiens, UniProt Q9H2S1)
T1 construct: expressed in transfected cells; host or cells: HEK293
Assay: whole-cell patch-clamp of ionic current through SK2 channels in HEK293 cells (SC100)
Format: cell-based
Conditions: whole-cell patch-clamp, HEK293 cells expressing SK2 channels; concentration that increases the basal current by 100%
How it was run: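 Whole-cell patch-clamp recording of current in HEK293 cells expressing SK2 channels. SC100 is the compound concentration that increases basal current by 100%.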

SMILES | SC100 (μM)
Cc1csc(-c2nc(NC3CCC(F)(F)CC3)cc(N3CC4CCC(C3)O4)n2)n1 [NSSy6129] | ++ (++ means 200 nM-1000 nM)
Cc1csc(-c2nc(NC3CCCCC3)cc(N3CCS(=O)(=O)CC3)n2)n1 [NSSy6131] | +++ (+++ means <200 nM)
COC(=O)N1CC(Oc2cc(NC3CCC(F)(F)CC3)nc(-c3csc(C)n3)n2)C1 [NSSy6132] | + (+ means >1 uM)
COC(=O)N1CC(Oc2cc(NC3CCCCC3)nc(-c3csc(C)n3)n2)C1 [NSSy6133] | + (+ means >1 uM)
Cc1nc(-c2nc(NC3CCCCC3)cc(N3CCS(=O)(=O)CC3)n2)cs1 [NSSy6134] | + (+ means >1 uM)
Cc1nsc(-c2nc(NC3CCC(F)(F)CC3)cc(N3CC4(COC4)C3)n2)n1 [NSSy6145] | + (+ means >1 uM)
Cc1csc(-c2nc(NC3CCCCC3)cc(N3CCN(C4COC4)CC3)n2)n1 [NSSy6149] | ++ (++ means 200 nM-1000 nM)
FC1(F)CCC(Nc2cc(N3CCOCC3)nc(-c3nccs3)n2)CC1 [NSSy6152] | + (+ means >1 uM)
COC(=O)N1CC(Oc2cc(NC3CCC(F)(F)CC3)nc(-n3ccc(F)n3)n2)C1 [NSSy6162] | ++ (++ means 200 nM-1000 nM)
Cc1nc(-c2nc(NC3CCC(F)(F)CC3)cc(N3CCS(=O)(=O)CC3)n2)cs1 [NSSy6165] | + (+ means >1 uM)
COC(=O)N1CC(Oc2cc(NC3CCCCC3)nc(-c3nccs3)n2)C1 [NSSy6166, methyl 3-((6-(cyclohexylamino)-2-(thiazol-2-yl)pyrimidin-4-yl)oxy) azetidine-1-carboxylate] | + (+ means >1 uM)
COC(=O)N1CC(Oc2cc(NC3CCC(F)(F)CC3)nc(-c3nccs3)n2)C1 [NSSy6167] | + (+ means >1 uM)
Cc1csc(-c2nc(NC3CCC(F)(F)CC3)cc(N3C[C@@H]4C[C@H]3CO4)n2)n1 [NSSy6171] | ++ (++ means 200 nM-1000 nM)
Cc1nsc(-c2nc(NC3CCC(F)(F)CC3)cc(N3CCN4C(=O)OCC4C3)n2)n1 (stereo not drawn) [NSSy6178] | ++ (++ means 200 nM-1000 nM)
Cc1nsc(-c2nc(NC3CCC(F)(F)CC3)cc(N3CCN(C4COC4)CC3)n2)n1 [NSSy6201] | + (+ means >1 uM)
Cc1nsc(-c2nc(NC3CCCCC3)cc(N3CCS(=O)(=O)CC3)n2)n1 [NSSy6202, 4-(6-(cyclohexylamino)-2-(3-methyl-1,2,4-thiadiazol-5-yl)pyrimidin-4-yl)thiomorpholine 1,1-dioxide] | ++ (++ means 200 nM-1000 nM)
Cc1nsc(-c2nc(NC3CCC(F)(F)CC3)cc(N3CCN4C(=O)OC[C@@H]4C3)n2)n1 [NSSy6251] | ++ (++ means 200 nM-1000 nM)
Cc1nsc(-c2nc(NC3CCC(F)(F)CC3)cc(N3CCN4C(=O)OC[C@H]4C3)n2)n1 [NSSy6252] | ++ (++ means 200 nM-1000 nM)
Cc1csc(-c2nc(NC3CCC(F)(F)CC3)cc(OC3CCS(=O)(=O)CC3)n2)n1 [NSSy6253] | ++ (++ means 200 nM-1000 nM)

SMILES | SC100 (μM)
CC(=O)N1CCC(Oc2cc(NC3CCC(F)(F)CC3)nc(-c3nc(C)cs3)n2)CC1 [NSSy6258] | ++ (++ means 200 nM-1000 nM)
Cc1csc(-c2nc(CC3CCC(F)(F)CC3)cc(N3CCOCC3)n2)n1 [NSSy6263, 4-(6-((4,4-difluorocyclohexyl)methyl)-2-(4-methylthiazol-2-yl)pyrimidin-4-yl)morpholine] | + (+ means >1 uM)
Cc1cc(C)n(-c2nc(NC3CCCC(F)(F)C3)cc(N3CCOCC3)n2)n1 (stereo not drawn) [NSSy6265] | + (+ means >1 uM)
Cc1ccn(-c2nc(NC3CCC(F)(F)CC3)cc(N(C)C3CC3)n2)n1 [NSSy6272] | ++ (++ means 200 nM-1000 nM)
Cc1csc(-c2cc(N3CCOCC3)cc(OC3CCC(F)(F)CC3)n2)n1 [NSSy6285] | + (+ means >1 uM)
Cc1csc(-c2cc(N(C)C3COC3)cc(NC3CCC(F)(F)CC3)n2)n1 [NSSy6288] | ++ (++ means 200 nM-1000 nM)
Cc1csc(N2C[C@@H](Nc3ccc([N+](=O)[O-])cc3)C[C@H](N3CCOCC3)C2)n1 [NSSy6342, (3S,5S)-1-(4-methylthiazol-2-yl)-5-morpholino-N-(4-nitrophenyl)piperidin-3-amine] | + (+ means >1 uM)
Fc1ccn(-c2nc(NC3CCC(F)(F)CC3)cc(N3CCOCC3)n2)n1 [NSSy6343] | + (+ means >1 uM)
Cc1csc(-c2nc(N3CCOCC3)cc(N3CC4CCCCC43)n2)n1 (stereo not drawn) [NSSy6348, 4-(6-(7-azabicyclo[4.2.0]octan-7-yl)-2-(4-methylthiazol-2-yl)pyrimidin-4-yl)morpholine] | + (+ means >1 uM)
Cc1cc(C)n(-c2cc(CO)cc(NC3CCC(F)(F)CC3)n2)n1 [NSSy6355, (2-((4,4-difluorocyclohexyl)amino)-6-(3,5-dimethyl-1H-pyrazol-1-yl)pyridin-4-yl) methanol] | ++ (++ means 200 nM-1000 nM)
CC(=O)N1CCC(c2cc(NC3CCC(F)(F)CC3)nc(-n3ccc(C)n3)n2)CC1 [NSSy6369] | ++ (++ means 200 nM-1000 nM)
Cc1ccn(-c2cc(COc3ccc(C#N)cn3)cc(NC3CCC(F)(F)CC3)n2)n1 [NSSy6371] | +++ (+++ means <200 nM)
Cc1csc(-c2cc(OC3CCC(F)(F)CC3)nc(N3CCOCC3)c2)n1 [NSSy6374, 4-(6-((4,4-difluorocyclohexyl)oxy)-4-(4-methylthiazol-2-yl)pyridin-2-yl) morpholine] | + (+ means >1 uM)
Cc1cc(C)n(-c2nc(N3CCOCC3)cc(N(O)C3CCC(F)(F)CC3)n2)n1 [NSSy6386] | + (+ means >1 uM)
Cc1cc(C)n(-c2cc(N3CCOCC3)nc(NC3CCC(F)(F)CC3)n2)n1 [NSSy6389] | + (+ means >1 uM)
Cc1csc(-c2cc(N3CCOCC3)nc(NC3CCC(F)(F)CC3)n2)n1 [NSSy6391, N-(4,4-difluorocyclohexyl)-4-(4-methylthiazol-2-yl)-6-morpholinopyrimidin-2-amine] | + (+ means >1 uM)
Cc1ccn(-c2nc(NC3CCC(F)(F)CC3)cc(N3C[C@@H]4C[C@H]3CO4)n2)n1 [NSSy6394] | + (+ means >1 uM)
Cc1ccn(-c2cc(C(O)c3ncco3)cc(NC3CCC(F)(F)CC3)n2)n1 (stereo not drawn) [NSSy6395] | ++ (++ means 200 nM-1000 nM)
Cc1ccn(-c2cc([C@@H](O)c3ncco3)cc(NC3CCC(F)(F)CC3)n2)n1 [NSSy6415] | ++ (++ means 200 nM-1000 nM)

SMILES | SC100 (μM)
Cc1ccn(-c2cc([C@H](O)c3ncco3)cc(NC3CCC(F)(F)CC3)n2)n1 [NSSy6416] | ++ (++ means 200 nM-1000 nM)
Cc1ccn(-c2cc(COc3ccc(C#N)nn3)cc(NC3CCC(F)(F)CC3)n2)n1 [NSSy6417] | +++ (+++ means <200 nM)
Cc1ccn(-c2nc(NC3CC4CCC3O4)cc(N3CCOCC3)n2)n1 (stereo not drawn) [NSSy6420] | + (+ means >1 uM)
OC(c1cc(NC2CCC(F)(F)CC2)nc(-n2cc(F)cn2)c1)c1ncco1 (stereo not drawn) [NSSy6435] | + (+ means >1 uM)
CC(=O)N1CCC(O)(c2cc(NC3CCC(F)(F)CC3)nc(-c3nc(C)cs3)c2)CC1 [NSSy6436, 1-(4-(2-((4,4-difluorocyclohexyl)amino)-6-(4-methylthiazol-2-yl)pyridin-4-yl)-4-hydroxypiperidin-1-yl)ethan-1-one] | +++ (+++ means <200 nM)
Cc1ccn(-c2nc(N[C@@H]3C[C@H]4CC[C@@H]3O4)cc(N3CCOCC3)n2)n1 [NSSy6445] | + (+ means >1 uM)
Cc1ccn(-c2nc(N[C@H]3C[C@@H]4CC[C@H]3O4)cc(N3CCOCC3)n2)n1 [NSSy6446] | + (+ means >1 uM)
Cc1ccn(-c2cc(COc3ccc(C(N)=O)nn3)cc(NC3CCC(F)(F)CC3)n2)n1 [NSSy6451] | +++ (+++ means <200 nM)
CC1(O)CC(Oc2cc(-n3ccc(F)n3)nc(NC3CCC(F)(F)CC3)n2)C1 (stereo not drawn) [NSSy6464, 3-((2-((4,4-difluorocyclohexyl)amino)-6-(3-fluoro-1H-pyrazol-1-yl)pyrimidin-4-yl)oxy)-1-methylcyclobutan-1-ol] | + (+ means >1 uM)
Fc1ccn(-c2cc(N3CC4(COC4)C3)nc(NC3CCC(F)(F)CC3)n2)n1 [NSSy6467] | + (+ means >1 uM)
Fc1ccn(-c2cc(N3CCOCC3)nc(NC3CCC(F)(F)CC3)n2)n1 [NSSy6468] | + (+ means >1 uM)
Cc1ccn(-c2cc(C(O)Cc3ccc(C#N)cn3)cc(NC3CCC(F)(F)CC3)n2)n1 (stereo not drawn) [NSSy6469, 6-(2-(2-((4,4-difluorocyclohexyl)amino)-6-(3-methyl-1H-pyrazol-1-yl)pyridin-4-yl)-2-hydroxyethyl)nicotinonitrile] | +++ (+++ means <200 nM)
Cc1ccn(-c2cc(N3CCOCC3)cc(C(=O)c3ccc(F)cc3)n2)n1 [NSSy6470, (4-fluorophenyl) (6-(3-methyl-1H-pyrazol-1-yl)-4-morpholinopyridin-2-yl) methanone] | + (+ means >1 uM)
Cc1cc(C)n(-c2cc(N3CC4(COC4)C3)nc(NC3CCC(F)CC3)n2)n1 (stereo not drawn) [NSSy6471, 4-(3,5-dimethyl-1H-pyrazol-1-yl)-N-(4-fluorocyclohexyl)-6-(2-oxa-6-azaspiro[3.3]heptan-6-yl)pyrimidin-2-amine] | + (+ means >1 uM)
Cc1ccn(-c2cc(N3CCOCC3)cc(C(O)c3ccc(F)cc3)n2)n1 (stereo not drawn) [NSSy6472, (4-fluorophenyl) (6-(3-methyl-1H-pyrazol-1-yl)-4-morpholinopyridin-2-yl) methanol] | + (+ means >1 uM)
Cc1nn(-c2cc(C(O)c3ncco3)cc(NC3CCC(F)(F)CC3)n2)c(C)c1F (stereo not drawn) [NSSy6473] | ++ (++ means 200 nM-1000 nM)
Cc1ccn(-c2nc(NC3CCC(O)CC3)cc(N3CCOCC3)n2)n1 (stereo not drawn) [NSSy6486] | + (+ means >1 uM)
Cc1ccn(-c2cc(S(=O)(=O)N3CCC(F)(F)CC3)cc(N3CCOCC3)n2)n1 [NSSy6489, 4-(4-((4,4-difluoropiperidin-1-yl)sulfonyl)-6-(3-methyl-1H-pyrazol-1-yl)pyridin-2-yl)morpholine] | + (+ means >1 uM)
Cc1ccn(-c2cc(N3CCOCC3)nc(NC3CCC(F)(F)CC3)n2)n1 [NSSy6499] | + (+ means >1 uM)
